The values below come from patent US20080194546A1, “Pyrido-, Pyrazo- and Pyrimido-Pyrimidine Derivatives as mTOR Inhibitors” (KuDOS Pharmaceuticals Limited, priority 2005, published 2008).

Read-outs that look alike come from different tables or passages of the source. Where only a bound is given, the exact number is not on record here.

The target in one experiment is T1, mTOR (Homo sapiens, UniProt P42345).
T1 construct: mTOR protein was isolated from HeLa cell cytoplasmic extract by immunoprecipitation; endogenous in cells; host or cells: HeLa cell cytoplasmic extract (immunoprecipitate)
Briefly: Biological Assay: mTOR enzyme activity, mTOR immunoprecipitated from HeLa cell cytoplasmic extract, recombinant PHAS-1 as substrate. The experiment is classed as biochemical. The conditions noted are these: Biological Assay, upper bounds; read-out: IC50 values against mTOR.

Experiment [1] has as its target recombinant mTOR (FLAG-tagged, amino acid residues 1362 to 2549) (Homo sapiens, UniProt P42345). Briefly: Alternative Enzyme Assay: AlphaScreen, inhibition of phosphorylation by recombinant mTOR. The experiment is classed as biochemical. In general terms: In Alpha technology, singlet oxygen from a donor bead excites a nearby acceptor bead.
In experiment [2] the test system is phosphorylation of Serine 473 in Akt in MDA-MB-468 cells. Briefly: In Vitro phospho-Ser473 Akt Assay (Acumen Explorer). Type of experiment: cell-based. The conditions noted are these: Homo sapiens; MDA-MB-468 cells, 2 hours; read-out: IC50, phospho-Ser473 Akt assay (cellular IC50, measured by pAkt).
Setting [3] is: Alternative Enzyme Assay, upper bounds, read-out: IC50 values against mTOR.
The mark [4] stands for this setting: Alternative Enzyme Assay, read-out: IC50 values against mTOR.

One may read the IC50 as the midpoint of a concentration-inhibition curve. With `C[C@@H]1CN(c2nc(N3CCOCC3)c3ccc(-c4ccc(Cl)cc4)nc3n2)C[C@H](C)O1` [Example 1b], the IC50 is less than 0.1 µM at mTOR and 0.057 µM in experiment [1] (AlphaScreen, ATP 20 μM, read-out: IC50, tested in Alternative Enzyme Assay). Turning to `CC(C)Oc1ccc(-c2ccc3c(N4CCOCC4)nc(N4C[C@@H](C)O[C@@H](C)C4)nc3n2)cc1` [Example 1bd], the 50% inhibitory concentration (IC50) in experiment [2] was less than 25 µM; in experiment [1] (setting [3]), less than 10 µM; in experiment [1] (setting [4]), less than 0.3 µM. For `C[C@H]1COCCN1c1nc(N2CCOCC2)c2ccc(-c3ccc(Cl)cc3)nc2n1` [Example 1be] the same measures were less than 2.5 µM, less than 10 µM and less than 0.3 µM.

For the compound `C[C@@H]1CN(c2nc(N3CCOCC3)c3ccc(-c4ccc(OCc5ccccc5)cc4)nc3n2)C[C@H](C)O1` [Example 1bf], the IC50 in experiment [1] (setting [4]) was less than 0.3 µM.

Take `C[C@@H]1CN(c2nc(N3CCOCC3)c3ccc(-c4cccc(/C=N/O)c4)nc3n2)C[C@H](C)O1` [Example 1bg]: the IC50 is less than 2.5 µM in experiment [2] and less than 0.3 µM in experiment [1] (setting [4]). For `C/C(=N/O)c1cccc(-c2ccc3c(N4CCOCC4)nc(N4C[C@@H](C)O[C@@H](C)C4)nc3n2)c1` [Example 1bh] the same measures were less than 25 µM and less than 0.3 µM. Regarding `C[C@@H]1CN(c2nc(N3CCOCC3)c3ccc(-c4ccoc4CO)nc3n2)C[C@H](C)O1` [Example 1bi], the half-maximal inhibitory concentration (IC50) in experiment [2] is less than 25 µM; in experiment [1] (setting [4]), less than 0.3 µM. In the same order, the values of `COc1ccc(-c2ccc3c(N4CCOCC4)ncnc3n2)cc1CO` [Example 1bj] are less than 25 µM and less than 0.3 µM.

In the case of `C[C@@H]1CN(c2nc(N3CCOCC3)c3ccc(-c4ccc(OCC5CCCCC5)cc4)nc3n2)C[C@H](C)O1` [Example 1bk], the IC50 in experiment [1] (setting [3]) was less than 1 µM.

`C[C@@H]1CN(c2nc(N3CCOCC3)c3ccc(-c4ccc(OC5C=CCCC5)cc4)nc3n2)C[C@H](C)O1` (stereo partly shown) [Example 1bl]: the half-maximal inhibitory concentration (IC50) in experiment [1] (setting [3]) was less than 10 µM. On the same count and under the same terms, as for `C[C@@H]1CN(c2nc(N3CCOCC3)c3ccc(-c4ccc(OCCCO)cc4)nc3n2)C[C@H](C)O1` [Example 1bm], the figure is less than 1 µM; as for `CCCOc1ccc(-c2ccc3c(N4CCOCC4)nc(N4C[C@@H](C)O[C@@H](C)C4)nc3n2)cc1` [Example 1bn], less than 1 µM. On the same count and under the same terms, the result for `C[C@@H]1CN(c2nc(N3CCOCC3)c3ccc(-c4ccc(OCC(C)(C)C)cc4)nc3n2)C[C@H](C)O1` [Example 1bo] reads less than 1 µM; that for `C[C@@H]1CN(c2nc(N3CCOCC3)c3ccc(-c4ccc(OCC(C)(C)CO)cc4)nc3n2)C[C@H](C)O1` [Example 1bp], less than 1 µM.

As to `C/C=C/COc1ccc(-c2ccc3c(N4CCOCC4)nc(N4C[C@@H](C)O[C@@H](C)C4)nc3n2)cc1` [Example 1bq], the IC50 in experiment [1] (setting [3]) is less than 1 µM. For `CCOc1ccc(-c2ccc3c(N4CCOCC4)nc(N4C[C@@H](C)O[C@@H](C)C4)nc3n2)cc1` [Example 1br], the 50% inhibitory concentration (IC50) was less than 2.5 µM in experiment [2] and less than 1 µM in experiment [1] (setting [3]).

In the case of `C[C@@H]1CN(c2nc(N3CCOCC3)c3ccc(-c4ccc(OCC5CCCO5)cc4)nc3n2)C[C@H](C)O1` (stereo partly shown) [Example 1bt], the concentration for half-maximal inhibition (IC50) in experiment [1] (setting [3]) was less than 1 µM. Same read-out and setting: the result for `CC(Oc1ccc(-c2ccc3c(N4CCOCC4)nc(N4C[C@@H](C)O[C@@H](C)C4)nc3n2)cc1)c1ccccc1` (stereo partly shown) [Example 1bv] reads less than 10 µM; that for `C[C@@H]1CN(c2nc(N3CCOCC3)c3ccc(-c4ccc(OCc5ccc(F)c(F)c5)cc4)nc3n2)C[C@H](C)O1` [Example 1bw], less than 10 µM. Still for that read-out and setting: as for `CC(C)CCCOc1ccc(-c2ccc3c(N4CCOCC4)nc(N4C[C@@H](C)O[C@@H](C)C4)nc3n2)cc1` [Example 1bx], the figure is less than 10 µM. For the compound `COc1ccc(-c2ccc3c(N4CCOCC4)nc(-c4cc(N)cc(C(=O)O)c4)nc3n2)cc1CO` [Example 9a], the IC50 in experiment [2] was less than 25 µM; in experiment [1] (setting [3]), less than 10 µM; in experiment [1] (setting [4]), less than 0.3 µM. For the compound `Clc1ccc(-c2ccc3c(N4CCOCC4)nc(-c4cccc(-c5ccccc5)c4)nc3n2)cc1` [Example 9aa], the results for the IC50 in experiment [2] and in experiment [1] (setting [3]) were less than 25 µM and less than 1 µM, respectively. `N#Cc1cccc(-c2nc(N3CCOCC3)c3ccc(-c4ccc(Cl)cc4)nc3n2)c1` [Example 9ab]: the half-maximal inhibitory concentration (IC50) in experiment [1] (setting [3]) is less than 10 µM. Still for that read-out and setting: the result for `NC(=O)c1cccc(-c2nc(N3CCOCC3)c3ccc(-c4ccc(Cl)cc4)nc3n2)c1` [Example 9ac] reads less than 10 µM. The same measure, in the same setting: the result for `COC(=O)c1cccc(-c2nc(N3CCOCC3)c3ccc(-c4ccc(Cl)cc4)nc3n2)c1` [Example 9ad] reads less than 1 µM.

In the case of `COc1ccc(-c2ccc3c(N4CCOCC4)nc(-c4cccc(CO)c4)nc3n2)cc1CO` [Example 9ae], the IC50 was less than 10 µM in experiment [1] (setting [3]) and less than 0.3 µM in experiment [1] (setting [4]).

On to `COc1ccc(-c2ccc3c(N4CCOCC4)nc(-c4cc(C(=O)O)cc([N+](=O)[O-])c4)nc3n2)cc1CO` [Example 9b], for which the half-inhibitory concentration (IC50) in experiment [1] (setting [3]) is less than 10 µM; in experiment [1] (setting [4]) it was less than 0.3 µM.

As for `COc1ccc(-c2ccc3c(N4CCOCC4)nc(-c4cccc([N+](=O)[O-])c4)nc3n2)cc1CO` [Example 9c], the IC50 in experiment [1] (setting [3]) is less than 10 µM; in experiment [1] (setting [4]) it was less than 0.3 µM. For the compound `COc1ccc(-c2ccc3c(N4CCOCC4)nc(-c4cccc(C)c4)nc3n2)cc1CO` [Example 9d], the IC50 in experiment [2] was less than 25 µM; in experiment [1] (setting [3]) it was less than 10 µM; in experiment [1] (setting [4]) it was less than 0.3 µM. For `COc1cccc(-c2nc(N3CCOCC3)c3ccc(-c4ccc(OC)c(CO)c4)nc3n2)c1` [Example 9e] the same measures were less than 25 µM, less than 10 µM and less than 0.3 µM. For `COc1ccc(-c2ccc3c(N4CCOCC4)nc(-c4ccco4)nc3n2)cc1CO` [Example 9f] the same measures were less than 25 µM, less than 10 µM and less than 0.3 µM. In the same order, the values of `COc1ccc(-c2ccc3c(N4CCOCC4)nc(-c4cccc(C=O)c4)nc3n2)cc1CO` [Example 9g] are less than 2.5 µM, less than 10 µM and less than 0.3 µM.

On to `COc1ccc(-c2ccc3c(N4CCOCC4)nc(-c4cccc(-c5ccccc5)c4)nc3n2)cc1CO` [Example 9o], for which the IC50 in experiment [1] (setting [3]) was less than 10 µM. `FC(F)(F)c1cccc(-c2nc(N3CCOCC3)c3ccc(-c4ccc(Cl)cc4)nc3n2)c1` [Example 9p]: in experiment [1] (setting [3]), the IC50 was less than 1 µM. Same read-out and setting: the result for `COc1ccc(-c2ccc3c(N4CCOCC4)nc(-c4ccc(OC)c(CO)c4)nc3n2)cc1CO` [Example 9q] reads less than 10 µM. On the same count and under the same terms, as for `C[C@@H]1CN(c2ccc3c(N4CCOCC4)nc(-c4ccc(Cl)cc4)nc3n2)C[C@H](C)O1` [Example 9s], the figure is less than 10 µM; as for `Clc1ccc(-c2ccc3c(N4CCOCC4)nc(-c4cccnc4)nc3n2)cc1` [Example 9t], less than 10 µM. Still for that read-out and setting: the result for `COc1cccc(-c2nc(N3CCOCC3)c3ccc(-c4ccc(Cl)cc4)nc3n2)c1` [Example 9u] reads less than 10 µM. As for `O=[N+]([O-])c1cccc(-c2nc(N3CCOCC3)c3ccc(-c4ccc(Cl)cc4)nc3n2)c1` [Example 9v], in experiment [1] (setting [3]), the half-inhibitory concentration (IC50) was less than 10 µM.

Consider `O=Cc1cccc(-c2nc(N3CCOCC3)c3ccc(-c4ccc(Cl)cc4)nc3n2)c1` [Example 9w], for which, in experiment [1] (setting [3]), the 50% inhibitory concentration (IC50) was less than 10 µM.

Turning to `Clc1ccc(-c2ccc3c(N4CCOCC4)nc(-c4ccco4)nc3n2)cc1` [Example 9x], the IC50 in experiment [1] (setting [3]) was less than 10 µM. As for `Cc1cccc(-c2nc(N3CCOCC3)c3ccc(-c4ccc(Cl)cc4)nc3n2)c1` [Example 9y], in experiment [1] (setting [3]), the half-maximal inhibitory concentration (IC50) is less than 10 µM. On the same count and under the same terms, the result for `COCc1cccc(-c2nc(N3CCOCC3)c3ccc(-c4ccc(Cl)cc4)nc3n2)c1` [Example 9z] reads less than 10 µM.
